Molecular target: T1, N-terminal HiBiT tagged BCL6 (Homo sapiens, UniProt P41182)
T1 construct: expressed in transfected cells; host or cells: HT1080 (ATCC CCL-121), stably transduced with lentivirus pLV-UBC-N-HiBiT-BCL6-PGK-puro
Test: HiBiT based degradation assay
Type: cell-based
Conditions: HT1080 cells expressing N-terminal HiBiT tagged BCL6, 5 hours of incubation; for Ymin (5 hr): BCL6 degradation normalized with DMSO control; for DC50: four-parameter logistic model, read-out: EC50 (5 hr)
How it was run: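 Degradation measured by luminescence from the Nano-Glo HiBiT lytic reagent (15 min, room temperature), normalized to DMSO controls and fitted to a four-parameter curve.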

| Ymin (5 hr) | DC50 | Structure (SMILES) |
| --- | --- | --- |
| ++++ (Ymin < 30%) | 10 to 100 nM | CNC(=O)COc1cc2cc(Nc3nc(N4CCN(CC5CCN(c6cccc7c(C8CCC(=O)NC8=O)nn(C)c67)CC5)CC4)ncc3Cl)cnc2n(CCO)c1=O (stereo not shown) [Compound 186, 2-((6-((5-chloro-2-(4-((1-(3-(2,6-dioxopiperidin-3-yl)-1-methyl-1H-indazol-7-yl)piperidin-4-yl)methyl)piperazin-1-yl)pyrimidin-4-yl)amino)-1-(2-hydroxyethyl)-2-oxo-1,2-dihydro-1,8-naphthyridin-3-yl)oxy)-N-methylacetamide] |
| +++ (30% ≤ Ymin < 50%) | 10 to 100 nM | CNC(=O)COc1cc2cc(Nc3nc(N4CCC(CN5CCN(c6cccc7c(C8CCC(=O)NC8=O)nn(C)c67)C[C@H]5C)CC4)ncc3F)cnc2n(C(C)C)c1=O (stereo partly drawn) [Compound 188a, 2-[[6-[[2-[4-[[(2R)-4-[3-(2,6-dioxo-3-piperidyl)-1-methyl-indazol-7-yl]-2-methyl-piperazin-1-yl]methyl]-1-piperidyl]-5-fluoro-pyrimidin-4-yl]amino]-1-isopropyl-2-oxo-1,8-naphthyridin-3-yl]oxy]-N-methyl-acetamide] |
| ++++ (Ymin < 30%) | 10 to 100 nM | CNC(=O)COc1cc2cc(Nc3nc(N4CCC(CN5CCN(c6cccc7c(C8CCC(=O)NC8=O)nn(C)c67)C[C@@H]5C)CC4)ncc3F)cnc2n(C(C)C)c1=O (stereo partly drawn) [Compound 188b, 2-[[6-[[2-[4-[[(2S)-4-[3-(2,6-dioxo-3-piperidyl)-1-methyl-indazol-7-yl]-2-methyl-piperazin-1-yl]methyl]-1-piperidyl]-5-fluoro-pyrimidin-4-yl]amino]-1-isopropyl-2-oxo-1,8-naphthyridin-3-yl]oxy]-N-methyl-acetamide] |
| ++++ (Ymin < 30%) | 10 to 100 nM | CNC(=O)COc1cc2cc(Nc3nc(N4CCC(F)(CN5CCN(c6cccc7c(C8CCC(=O)NC8=O)nn(C)c67)C[C@@H]5C)CC4)ncc3Cl)cnc2n(C(C)C)c1=O (stereo partly drawn) [Compound 189a, 2-[[6-[[5-chloro-2-[4-[[(2S)-4-[3-(2,6-dioxo-3-piperidyl)-1-methyl-indazol-7-yl]-2-methyl-piperazin-1-yl]methyl]-4-fluoro-1-piperidyl]pyrimidin-4-yl]amino]-1-isopropyl-2-oxo-1,8-naphthyridin-3-yl]oxy]-N-methyl-acetamide] |
| ++ (50% ≤ Ymin < 70%) | 10 to 100 nM | CNC(=O)COc1cc2cc(Nc3cc(N4CCC(CN5CCN(c6ccc7c(C8CCC(=O)NC8=O)nn(C)c7c6)CC5)CC4)ncc3Cl)cnc2n(C(C)C)c1=O (stereo not shown) [Compound 190, 2-[[6-[[5-chloro-2-[4-[[4-[3-(2,6-dioxo-3-piperidyl)-1-methyl-indazol-6-yl]piperazin-1-yl]methyl]-1-piperidyl]-4-pyridyl]amino]-1-isopropyl-2-oxo-1,8-naphthyridin-3-yl]oxy]-N-methyl-acetamide] |
| +++ (30% ≤ Ymin < 50%) | 10 to 100 nM | CNC(=O)COc1cc2cc(Nc3nc(N4CCN(CC5CCN(c6cccc7c(C8CCC(=O)NC8=O)nn(C)c67)CC5)C5(CC5)C4)ncc3Cl)cnc2n(C(C)C)c1=O (stereo not shown) [Compound 191, 2-[[6-[[5-chloro-2-[4-[[1-[3-(2,6-dioxo-3-piperidyl)-1-methyl-indazol-7-yl]-4-piperidyl]methyl]-4,7-diazaspiro[2.5]octan-7-yl]pyrimidin-4-yl]amino]-1-isopropyl-2-oxo-1,8-naphthyridin-3-yl]oxy]-N-methyl-acetamide] |
| ++++ (Ymin < 30%) | 10 to 100 nM | CNC(=O)COc1cc2cc(Nc3nc(N4CCC(CN5CCN(c6cccc7c(C8CCC(=O)NC8=O)nn(C)c67)C[C@@H]5C)CC4)ncc3Cl)cnc2n(C(C)C)c1=O (stereo partly drawn) [Compound 192a, 2-[[6-[[5-chloro-2-[4-[[(2S)-4-[3-(2,6-dioxo-3-piperidyl)-1-methyl-indazol-7-yl]-2-methyl-piperazin-1-yl]methyl]-1-piperidyl]pyrimidin-4-yl]amino]-1-isopropyl-2-oxo-1,8-naphthyridin-3-yl]oxy]-N-methyl-acetamide] |
| ++++ (Ymin < 30%) | 10 to 100 nM | CNC(=O)COc1cc2cc(Nc3nc(N4CCC(CN5CCN(c6cccc7c(C8CCC(=O)NC8=O)nn(C)c67)C[C@H]5C)CC4)ncc3Cl)cnc2n(C(C)C)c1=O (stereo partly drawn) [Compound 192b, 2-[[6-[[5-chloro-2-[4-[[(2R)-4-[3-(2,6-dioxo-3-piperidyl)-1-methyl-indazol-7-yl]-2-methyl-piperazin-1-yl]methyl]-1-piperidyl]pyrimidin-4-yl]amino]-1-isopropyl-2-oxo-1,8-naphthyridin-3-yl]oxy]-N-methyl-acetamide] |
| +++ (30% ≤ Ymin < 50%) | < 10 nM | CNC(=O)COc1cc2cc(Nc3nc(N4CCC(CN5CCN(c6ccc7c(C8CCC(=O)NC8=O)nn(C)c7c6)CC5(C)C)CC4)ncc3Cl)cnc2n(C(C)C)c1=O (stereo not shown) [Compound 196, 2-((6-((5-chloro-2-(4-((4-(3-(2,6-dioxopiperidin-3-yl)-1-methyl-1H-indazol-6-yl)-2,2-dimethylpiperazin-1-yl)methyl)piperidin-1-yl)pyrimidin-4-yl)amino)-1-isopropyl-2-oxo-1,2-dihydro-1,8-naphthyridin-3-yl)oxy)-N-methylacetamide] |
| +++ (30% ≤ Ymin < 50%) | 10 to 100 nM | CNC(=O)COc1cc2cc(Nc3nc(N4CCC(CN5[C@H](C)CN(c6cccc7c(C8CCC(=O)NC8=O)nn(C)c67)C[C@@H]5C)CC4)ncc3Cl)cnc2n(C(C)C)c1=O (stereo partly drawn) [Compound 197a, 2-[[6-[[5-chloro-2-[4-[[(2R,6S)-4-[3-(2,6-dioxo-3-piperidyl)-1-methyl-indazol-7-yl]-2,6-dimethyl-piperazin-1-yl]methyl]-1-piperidyl]pyrimidin-4-yl]amino]-1-isopropyl-2-oxo-1,8-naphthyridin-3-yl]oxy]-N-methyl-acetamide] |
| ++++ (Ymin < 30%) | 10 to 100 nM | CNC(=O)COc1cc2cc(Nc3nc(N4CCC(CN5[C@@H](C)CN(c6cccc7c(C8CCC(=O)NC8=O)nn(C)c67)C[C@@H]5C)CC4)ncc3Cl)cnc2n(C(C)C)c1=O (stereo partly drawn) [Compound 197b, 2-[[6-[[5-chloro-2-[4-[[(2S,6S)-4-[3-(2,6-dioxo-3-piperidyl)-1-methyl-indazol-7-yl]-2,6-dimethyl-piperazin-1-yl]methyl]-1-piperidyl]pyrimidin-4-yl]amino]-1-isopropyl-2-oxo-1,8-naphthyridin-3-yl]oxy]-N-methyl-acetamide] |
| ++ (50% ≤ Ymin < 70%) | 10 to 100 nM | CNC(=O)COc1cc2cc(Nc3nc(N4CC5(CCC(Nc6ccc(F)c7c(C8CCC(=O)NC8=O)nn(C)c67)CC5)C4)ncc3Cl)cnc2n(C(C)C)c1=O (stereo not shown) [Compound 198, 2-[[6-[[5-chloro-2-[7-[[3-(2,6-dioxo-3-piperidyl)-4-fluoro-1-methyl-indazol-7-yl]amino]-2-azaspiro[3.5]nonan-2-yl]pyrimidin-4-yl]amino]-1-isopropyl-2-oxo-1,8-naphthyridin-3-yl]oxy]-N-methyl-acetamide] |
| ++++ (Ymin < 30%) | < 10 nM | CNC(=O)COc1cc2cc(Nc3nc(N4CCC5(CCC(Nc6ccc7c(C8CCC(=O)NC8=O)nn(C)c7c6)CC5)CC4)ncc3Cl)cnc2n(C(C)C)c1=O (stereo not shown) [Compound 199, 2-[[6-[[5-chloro-2-[9-[[3-(2,6-dioxo-3-piperidyl)-1-methyl-indazol-6-yl]amino]-3-azaspiro[5.5]undecan-3-yl]pyrimidin-4-yl]amino]-1-isopropyl-2-oxo-1,8-naphthyridin-3-yl]oxy]-N-methyl-acetamide] |
| +++ (30% ≤ Ymin < 50%) | 10 to 100 nM | CNC(=O)COc1cc2cc(Nc3nc(N4CCC(CN5CCN(c6cccc7c(C8CCC(=O)NC8=O)nn(C)c67)CC5(C)C)CC4)ncc3Cl)cnc2n(C(C)C)c1=O (stereo not shown) [Compound 200, 2-[[6-[[5-chloro-2-[4-[[4-[3-(2,6-dioxo-3-piperidyl)-1-methyl-indazol-7-yl]-2,2-dimethyl-piperazin-1-yl]methyl]-1-piperidyl]pyrimidin-4-yl]amino]-1-isopropyl-2-oxo-1,8-naphthyridin-3-yl]oxy]-N-methyl-acetamide] |
| ++++ (Ymin < 30%) | < 10 nM | CNC(=O)COc1cc2cc(Nc3nc(N4CC5(CC(Nc6ccc7c(C8CCC(=O)NC8=O)nn(C)c7c6)C5)C4)ncc3Cl)cnc2n(C(C)C)c1=O (stereo not shown) [Compound 202, 2-[[6-[[5-chloro-2-[6-[[3-(2,6-dioxo-3-piperidyl)-1-methyl-indazol-6-yl]amino]-2-azaspiro[3.3]heptan-2-yl]pyrimidin-4-yl]amino]-1-isopropyl-2-oxo-1,8-naphthyridin-3-yl]oxy]-N-methyl-acetamide] |
| ++++ (Ymin < 30%) | < 10 nM | CNC(=O)COc1cc2cc(Nc3nc(N4CCC(O)(CN5CCC(c6cccc7c(C8CCC(=O)NC8=O)nn(C)c67)CC5)CC4)ncc3Cl)cnc2n(C(C)C)c1=O (stereo not shown) [Compound 203, 2-[[6-[[5-chloro-2-[4-[[4-[3-(2,6-dioxo-3-piperidyl)-1-methyl-indazol-7-yl]-1-piperidyl]methyl]-4-hydroxy-1-piperidyl]pyrimidin-4-yl]amino]-1-isopropyl-2-oxo-1,8-naphthyridin-3-yl]oxy]-N-methyl-acetamide] |

| Structure (SMILES) | Ymin (5 hr) | DC50 |
| --- | --- | --- |
| CNC(=O)COc1cc2cc(Nc3nc(N4CCC(CN5CC6CC(C5)N6c5cccc6c(C7CCC(=O)NC7=O)nn(C)c56)CC4)ncc3Cl)cnc2n(C(C)C)c1=O (stereo not shown) [Compound 187, 2-[[6-[[5-chloro-2-[4-[[6-[3-(2,6-dioxo-3-piperidyl)-1-methyl-indazol-7-yl]-3,6-diazabicyclo[3.1.1]heptan-3-yl]methyl]-1-piperidyl]pyrimidin-4-yl]amino]-1-isopropyl-2-oxo-1,8-naphthyridin-3-yl]oxy]-N-methyl-acetamide] | +++ (30% ≤ Ymin < 50%) | 10 to 100 nM |

From patent US20260241012A1, “1,8-NAPHTHYRIDIN-2-ONE HETEROBIFUNCTIONAL BCL6 DEGRADERS” (Treeline Biosciences, Inc., priority 2022, published 2026)
